Active and inactive are the calls of the source. No cut-off for these calls is given here.
Assays:
[1] = tested on: Lewis lung carcinoma; assay: Antitumor activity against cisplatin-induced mouse Lewis lung carcinoma cell line xenografted C57BL/6J mouse assessed as reduction in tumor mass at 25 to 100 mg/kg, po preadministered with compound for 2 days followed by cisplatin addition on day 3 and measured 72 hrs post cisplatin administration; assay type: functional, organism-based; details: dose 25-100 mg/kg, time 5.0 day
[2] = tested on: HK-2; assay: Protection against cisplatin-induced apoptosis in human HK-2 cells assessed as improvement in cell number preincubated with compound for 2 hrs followed by cisplatin induction and measured after 48 hrs by light microscopic analysis; assay type: functional, cell-based; details: dose 2.5-10 µM, time 50.0 hrs
[3] = tested on: HK-2; assay: Protection against cisplatin-induced apoptosis in human HK-2 cells preincubated with compound for 2 hrs followed by cisplatin induction and measured after 48 hrs by FITC/PI staining based flow cytometry analysis; assay type: functional, cell-based; details: dose 2.5-10 µM, time 50.0 hrs
[4] = tested on: HK-2; assay: Induction of autophagy in human HK-2 cells assessed as upregulation of PI3K class III expression at 2.5 to 10 uM by Western blotting analysis; assay type: functional, cell-based; details: dose 2.5-10 µM
[5] = tested on: HK-2; assay: Inhibition of cisplatin-induced DNA damage in human HK-2 cells assessed as reduction in p-histone-H2AX level at 2.5 to 10 uM by Western blot analysis; assay type: functional, cell-based; details: dose 2.5-10 µM
[6] = tested on: Lewis lung carcinoma; assay: Antitumor activity against cisplatin-induced mouse Lewis lung carcinoma cell line xenografted in po dosed C57BL/6J mouse assessed as reduction in BUN level in serum preadministered with compound for 2 days followed by cisplatin addition on day 3 and measured 72 hrs post cisplatin administration; assay type: functional, organism-based; details: dose 25-100 mg/kg, time 5.0 day
[7] = tested on: HK-2; assay: Induction of autophagy in human HK-2 cells assessed as […] at 2.5 to 10 uM by Western blotting analysis; assay type: functional, cell-based; details: dose 2.5-10 µM
[8] = tested on: HK-2; assay: Protection against cisplatin-induced apoptosis in human HK-2 cells assessed as improvement in cell morphology preincubated with compound for 2 hrs followed by cisplatin induction and measured after 48 hrs by light microscopic analysis; assay type: functional, cell-based; details: dose 2.5-10 µM, time 50.0 hrs
[9] = tested on: HK-2; assay: Induction of autophagy in human HK-2 cells assessed as upregulation of AMPKalpha expression at 2.5 to 10 uM by Western blotting analysis; assay type: functional, cell-based; details: dose 2.5-10 µM
[10] = tested on: Mus musculus; assay: Protection against cisplatin-induced nephrotoxicity in po dosed C57BL6/J mouse assessed as reduction in SCR level in kidney Preadministered with compound for 2 days followed by cisplatin addition on day 3 and measured 72 hrs post cisplatin administration; assay type: functional, organism-based; details: dose 25-100 mg/kg, time 5.0 day
[11] = tested on: HK-2; assay: Induction of autophagy in human HK-2 cells assessed as upregulation of p62 expression at 2.5 to 10 uM by Western blotting analysis; assay type: functional, cell-based; details: dose 2.5-10 µM
[12] = tested on: HK-2; assay: Protection against cisplatin-induced apoptosis in human HK-2 cells assessed as reduction in cleaved caspase 3 expression preincubated with compound for 2 hrs followed by cisplatin induction and measured after 48 hrs by Western blot analysis; assay type: functional, cell-based; details: dose 2.5-10 µM, time 50.0 hrs
[13] = tested on: HK-2; assay: Upregulation of ATP7B mRNA level in human HK-2 cells at 2.5 to 10 uM by RT-qPCR analysis; assay type: functional, cell-based; details: dose 2.5-10 µM
[14] = tested on: Cell membrane; assay: Induction of mitochondrial membrane potential loss in human HK-2 cells at 2.5 to 10 uM by JC-1 staining based laser microscopic analysis; assay type: cell membranes; details: dose 2.5-10 µM
[15] = tested on: HK-2; assay: Effect on MRP1 mRNA level in human HK-2 cells by transcriptome sequencing analysis; assay type: functional, cell-based
[16] = tested on: HK-2; assay: Effect on OCT1 mRNA level in human HK-2 cells by transcriptome sequencing analysis; assay type: functional, cell-based
[17] = tested on: HK-2; assay: Induction of autophagy in human HK-2 cells assessed as upregulation of ATG5 expression at 2.5 to 10 uM by Western blotting analysis; assay type: functional, cell-based; details: dose 2.5-10 µM
[18] = tested on: HK-2; assay: Reduction in intracellular cisplatin accumulation in human HK-2 cells by ICP-MS analysis; assay type: functional, cell-based; details: dose 2.5-10 µM
[19] = (§1) Antitumor activity against cisplatin-induced mouse Lewis lung carcinoma cell line xenografted C57BL/6J mouse assessed as reduction in tumor mass at 25 to 50 mg/kg, po preadministered with compound for 2 days followed by cisplatin addition on day 3 and measured 72 hrs post cisplatin administration; assay type: functional; parameters: scale not given: the % may be the effect or the level left; details: dose 25-50 mg/kg, time 5 day
[20] = tested on: Mus musculus; assay: (§2) Protection against cisplatin-induced nephrotoxicity in C57BL6/J mouse assessed as reduction in BUN level in kidney at 25 to 100 mg/kg, po preadministered with compound for 2 days followed by cisplatin addition on day 3 and measured 72 hrs post cisplatin administration; assay type: functional, organism-based; details: dose 25-100 mg/kg, time 5.0 day
[21] = tested on: HK-2; assay: Inhibition of cisplatin-induced DNA damage in human HK-2 cells assessed as reduction in cleaved-PARP level at 2.5 to 10 uM by Western blot analysis; assay type: functional, cell-based; details: dose 2.5-10 µM
[22] = tested on: HK-2; assay: Upregulation of AKT gene expression in human HK-2 cells by KEGG analysis; assay type: functional, cell-based
[23] = tested on: HK-2; assay: Upregulation of ATP7A level in human HK-2 cells at 2.5 to 10 uM by Western blot analysis; assay type: functional, cell-based; details: dose 2.5-10 µM
[24] = tested on: HK-2; assay: Upregulation of PI3K gene expression in human HK-2 cells by KEGG analysis; assay type: functional, cell-based
[25] = tested on: HK-2; assay: Effect on OCT2 mRNA level in human HK-2 cells by transcriptome sequencing analysis; assay type: functional, cell-based
[26] = tested on: NCI-H460; assay: Cytotoxicity against human NCI-H460 cells; assay type: functional, cell-based
[27] = tested on: Cell membrane; assay: Induction of mitochondrial membrane potential loss in human HK-2 cells assessed as increase in OPA1 expression by Western blot analysis; assay type: cell membranes; details: dose 2.5-10 µM
[28] = tested on: HK-2; assay: Effect on SLC47A1 mRNA level in human HK-2 cells by transcriptome sequencing analysis; assay type: functional, cell-based
[29] = tested on: HK-2; assay: Effect on CTR1 mRNA level in human HK-2 cells by transcriptome sequencing analysis; assay type: functional, cell-based
[30] = tested on: Cell membrane; assay: Induction of mitochondrial membrane potential loss in human HK-2 cells assessed as increase in sirtuin 3 expression by Western blot analysis; assay type: cell membranes; details: dose 2.5-10 µM
[31] = tested on: HK-2; assay: Inhibition of cisplatin-induced DNA damage in human HK-2 cells assessed as […] in comet tail length by comet assay; assay type: functional, cell-based; details: dose 2.5-10 µM
[32] = tested on: NCI-H1299; assay: Cytotoxicity against human NCI-H1299 cells; assay type: functional, cell-based
[33] = tested on: Cell membrane; assay: Induction of mitochondrial membrane potential loss in human HK-2 cells assessed as increase in ATP5A1 expression by Western blot analysis; assay type: cell membranes; details: dose 2.5-10 µM
[34] = tested on: HK-2; assay: Effect on ATP7A mRNA level in human HK-2 cells by transcriptome sequencing analysis; assay type: functional, cell-based; details: dose 2.5-10 µM
[35] = tested on: Lewis lung carcinoma; assay: Cytotoxicity against mouse Lewis lung carcinoma cell line; assay type: functional, cell-based
[36] = tested on: Mus musculus; assay: as §2, with “infiltration of inflammatory cells” for “BUN level in kidney”, “at” for “at 25 to”, “administration by H and E staining based analysis” for “administration”; assay type: functional, organism-based; details: time 5.0 day
[37] = tested on: HK-2; assay: Effect on ATP7B mRNA level in human HK-2 cells by transcriptome sequencing analysis; assay type: functional, cell-based; details: dose 2.5-10 µM
[38] = tested on: HK-2; assay: Upregulation of CTR1 mRNA level in human HK-2 cells at 2.5 to 10 uM by RT-qPCR analysis; assay type: functional, cell-based; details: dose 2.5-10 µM
[39] = tested on: HK-2; assay: Induction of autophagy in human HK-2 cells assessed as upregulation of beclin1 expression at 2.5 to 10 uM by Western blotting analysis; assay type: functional, cell-based; details: dose 2.5-10 µM
[40] = tested on: HK-2; assay: Upregulation of ATP7B level in human HK-2 cells at 2.5 to 10 uM by Western blot analysis; assay type: functional, cell-based; details: dose 2.5-10 µM
[41] = tested on: Lewis lung carcinoma; assay: as §1, with “inflammatory cell infiltration” for “reduction in tumor mass”, “administration by H and E staining based analysis” for “administration”; assay type: functional, organism-based; details: dose 25-50 mg/kg, time 5.0 day
[42] = tested on: HK-2; assay: Upregulation of AMPK gene expression in human HK-2 cells by KEGG analysis; assay type: functional, cell-based

With `COc1c(C=O)c(OC)c(C(=O)c2ccccc2)c2c1CC1CC/C(C)=C/CC(C)(C)/C=C/CC1(C)O2` (centres undefined) the Activity [1] was “Active”, the Activity [2] was “Dose-Dependent Effect” and the Activity [3] was “Dose-Dependent Effect”. For the same compound, the Activity [4] was “Active”, the inhibition [5] was “Active” and the Activity [6] was “Active”. The Activity [7] was “Active”, the Activity [8] was “Dose-Dependent Effect” and the Activity [9] was “Active”. For the same compound, the Activity [10] was “Dose-Dependent Effect”, the Activity [11] was “Active” and the Activity [12] was “Dose-Dependent Effect”. For the same compound, the Activity [13] was “Active”, the Activity [14] was “Active” and the Activity [15] was “inactive”. The Activity [16] was “inactive”, the Activity [17] was “Active” and the Activity [18] was “Dose-Dependent Effect”. For the same compound, the Activity [19] was 31.4%, the Activity [20] was “Active” and the inhibition [21] was “Active”. For the same compound, the Activity [22] was “Active”, the Activity [23] was “Active” and the Activity [24] was “Active”. For the same compound, the Activity [25] was “inactive”, the Activity [26] was “Active” and the Activity [27] was “Active”. For the same compound, the Activity [28] was “inactive”, the Activity [29] was “inactive” and the Activity [30] was “Active”. For the same compound, the inhibition [31] was “Dose-Dependent Effect”, the Activity [32] was “Active” and the Activity [33] was “Active”. The Activity [34] was “Dose-Dependent Effect”, the Activity [35] was “Active” and the Activity [36] was “Active”. The Activity [37] was “Dose-Dependent Effect”, the Activity [38] was “Active” and the Activity [39] was “Active”. The Activity [40] was “Active”, the Activity [41] was “Active” and the Activity [42] was “Active”.

In the case of `COc1c(CO)c(OC)c(C(=O)c2ccccc2)c2c1C[C@H]1CC/C(C)=C/CC(C)(C)/C=C/C[C@]1(C)O2`, the Activity [1] is reported as “Active”, the Activity [2] is reported as “Dose-Dependent Effect” and the Activity [3] is reported as “Dose-Dependent Effect”. For the same compound, the Activity [4] was “Active”, the inhibition [5] was “Active” and the Activity [6] was “Active”. The Activity [7] was “Active”, the Activity [8] was “Dose-Dependent Effect” and the Activity [9] was “Active”. The Activity [10] was “Dose-Dependent Effect”, the Activity [11] was “Active” and the Activity [12] was “Dose-Dependent Effect”. For the same compound, the Activity [13] was “Active”, the Activity [14] was “Active” and the Activity [15] was “inactive”. For the same compound, the Activity [16] was “inactive”, the Activity [17] was “Active” and the Activity [18] was “Dose-Dependent Effect”. The Activity [19] was 28.1%, the Activity [20] was “Active” and the inhibition [21] was “Active”. The Activity [22] was “Active”, the Activity [23] was “Active” and the Activity [24] was “Active”. The Activity [25] was “inactive”, the Activity [26] was “Active” and the Activity [27] was “Active”. The Activity [28] was “inactive”, the Activity [29] was “inactive” and the Activity [30] was “Active”. The inhibition [31] was “Dose-Dependent Effect”, the Activity [32] was “Active” and the Activity [33] was “Active”. For the same compound, the Activity [34] was “Dose-Dependent Effect”, the Activity [35] was “Active” and the Activity [36] was “Active”. The Activity [37] was “Dose-Dependent Effect”, the Activity [38] was “Active” and the Activity [39] was “Active”. For the same compound, the Activity [40] was “Active”, the Activity [41] was “Active” and the Activity [42] was “Active”.
